Measurements as given in patent US10961264B2, “Process for isolating a (thio)phosphoric acid derivative” (BASF SE, priority 2015, dated 2021).

Key:
[1] = Solubility of the (thio)phosphoric acid derivative in process solvents; assay type: physicochemical
[2] = as described in U.S. Pat. No. 8,513,460 B1; cited from earlier work

CCCNP(N)(N)=S [NPPT, N-(n-propyl)thiophosphoric acid triamide]
solubility in dichloromethane ([1]; dichloromethane, even at higher temperatures of 30° C. to 80° C.): poor solubility
dissolution in dichloromethane in amounts comparable to NBPT ([1]; dichloromethane, same conditions as NBPT): not possible to dissolve
dissolution in ethyl acetate ([1]; ethyl acetate, upon moderate heating, precipitates again on cooling to room temperature): can be dissolved to a large extent
solubility in aromatic solvents such as toluene ([1]; toluene, even at higher temperatures of 30° C. to 80° C.): poor solubility
dissolution in toluene in amounts comparable to NBPT ([1]; toluene, same conditions as NBPT): not possible to dissolve
solubility in toluene ([1]; toluene, upon heating the product mixture (work-up of U.S. Pat. No. 8,513,460 B1)): not sufficiently soluble

CCCCNP(N)(N)=S [NBPT, N-(n-butyl)thiophosphoric acid triamide]
dissolution in toluene [2]: can be dissolved
